Measurements from patent US11377469B2, “CD73 inhibitors” (ORIC Pharmaceuticals, Inc., priority 2017, dated 2022).
pIC50: −log10 of the molar value.

Molecular target: CD73 (Homo sapiens (Human), UniProt P21589)
Assay: Biochemical Assay (CD73 inhibition, AMP hydrolysis, Malachite Green readout)
Conditions: CD73 0.3208 nM, AMP 15 μM, Tris-HCl pH 7.4, Malachite Green absorbance

CD73, sequence (P21589 27-574): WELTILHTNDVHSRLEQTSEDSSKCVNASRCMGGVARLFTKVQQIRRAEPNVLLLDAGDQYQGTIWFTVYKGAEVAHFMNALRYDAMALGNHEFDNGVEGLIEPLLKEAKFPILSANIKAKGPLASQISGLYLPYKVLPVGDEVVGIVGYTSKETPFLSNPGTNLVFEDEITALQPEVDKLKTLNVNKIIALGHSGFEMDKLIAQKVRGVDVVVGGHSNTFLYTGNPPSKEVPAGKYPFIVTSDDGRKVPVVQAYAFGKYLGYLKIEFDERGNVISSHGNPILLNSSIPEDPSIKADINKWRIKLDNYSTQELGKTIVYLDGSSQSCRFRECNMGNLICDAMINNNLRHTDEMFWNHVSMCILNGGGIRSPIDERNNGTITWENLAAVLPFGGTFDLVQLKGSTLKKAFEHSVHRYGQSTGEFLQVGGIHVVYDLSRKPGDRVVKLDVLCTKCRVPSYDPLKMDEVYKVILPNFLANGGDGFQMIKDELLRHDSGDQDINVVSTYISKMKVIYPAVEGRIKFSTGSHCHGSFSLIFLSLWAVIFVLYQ

`C[C@@H](Nc1nc(Cl)nc2c1cnn2[C@@H]1O[C@H](COCP(=O)(O)O)[C@@H](O)[C@H]1O)C1CC1` [Example 92, ((((2R,3S,4R,5R)-5-(6-chloro-4-(((R)-1-cyclopropylethyl)amino)-1H-pyrazolo[3,4-d]pyrimidin-1-yl)-3,4-dihydroxytetrahydrofuran-2-yl)methoxy)methyl)phosphonic acid] and `O=P(O)(O)COC[C@H]1O[C@@H](n2ncc3c(NCCC4CC4)nc(Cl)nc32)[C@H](O)[C@@H]1O` [Example 94, ((((2R,3S,4R,5R)-5-(6-chloro-4-((2-cyclopropylethyl)amino)-1H-pyrazolo[3,4-d]pyrimidin-1-yl)-3,4-dihydroxytetrahydrofuran-2-yl)methoxy)methyl)phosphonic acid] cannot be ordered by pIC50: ≥ 6.30 for the first, ≥ 6.30 for the second.

`O=P(O)(O)COC[C@H]1O[C@@H](n2ncc3c(NC4CCCCC4)nc(Cl)nc32)[C@H](O)[C@@H]1O` [Example 93, ((((2R,3S,4R,5R)-5-(6-chloro-4-(cyclohexylamino)-1H-pyrazolo[3,4-d]pyrimidin-1-yl)-3,4-dihydroxytetrahydrofuran-2-yl)methoxy)methyl)phosphonic acid] and `O=P(O)(O)COC[C@H]1O[C@@H](n2nnc3c(NC4CCCC4)nc(Cl)nc32)[C@H](O)[C@@H]1O` [Example 95, ((((2R,3S,4R,5R)-5-(5-chloro-7-(cyclopentylamino)-3H-[1,2,3]triazolo[4,5-d]pyrimidin-3-yl)-3,4-dihydroxytetrahydrofuran-2-yl)methoxy)methyl)phosphonic acid] cannot be ordered by pIC50: ≥ 6.30 for the first, ≥ 6.30 for the second.

`CC1(CNc2nc(Cl)nc3c2cnn3[C@@H]2O[C@H](COCP(=O)(O)O)[C@@H](O)[C@H]2O)CC1` [Example 96, ((((2R,3S,4R,5R)-5-(6-chloro-4-(((1-methylcyclopropyl)methyl)amino)-1H-pyrazolo[3,4-d]pyrimidin-1-yl)-3,4-dihydroxytetrahydrofuran-2-yl)methoxy)methyl)phosphonic acid] and `CC1(C)CCC[C@@H]1Nc1nc(Cl)nc2c1cnn2[C@@H]1O[C@H](COCP(=O)(O)O)[C@@H](O)[C@H]1O` [Example 102, ((((2R,3S,4R,5R)-5-(6-chloro-4-(((S)-2,2-dimethylcyclopentyl)amino)-1H-pyrazolo[3,4-d]pyrimidin-1-yl)-3,4-dihydroxytetrahydrofuran-2-yl)methoxy)methyl)phosphonic acid] cannot be ordered by pIC50: ≥ 6.30 for the first, ≥ 6.30 for the second.

Going from `Cc1cc2c(NCC3CC3)nc(Cl)nc2n1[C@@H]1O[C@H](COCP(=O)(O)O)[C@@H](O)[C@H]1O` [Example 97, ((((2R,3S,4R,5R)-5-(2-chloro-4-((cyclopropylmethyl)amino)-6-methyl-7H-pyrrolo[2,3-d]pyrimidin-7-yl)-3,4-dihydroxytetrahydrofuran-2-yl)methoxy)methyl)phosphonic acid] to `C[C@@H]1CCC[C@@H]1Nc1nc(Cl)nc2c1cnn2[C@@H]1O[C@H](COCP(=O)(O)O)[C@@H](O)[C@H]1O` [Example 104, ((((2R,3S,4R,5R)-5-(6-chloro-4-(((1S,2R)-2-methylcyclopentyl)amino)-1H-pyrazolo[3,4-d]pyrimidin-1-yl)-3,4-dihydroxytetrahydrofuran-2-yl)methoxy)methyl)phosphonic acid], the pIC50 rises from < 6.00 to ≥ 6.30. The second is the more potent here.

`CN(C[C@H]1O[C@@H](n2ncc3c(NC4CCCC4)nc(Cl)nc32)[C@H](O)[C@@H]1O)S(=O)(=O)CP(=O)(O)O` [Example 98, ((N-(((2R,3S,4R,5R)-5-(6-Chloro-4-(cyclopentylamino)-1H-pyrazolo[3,4-d]pyrimidin-1-yl)-3,4-dihydroxytetrahydrofuran-2-yl)methyl)-N-methylsulfamoyl)methyl)phosphonic acid] and `CN(C[C@H]1O[C@@H](n2ncc3c(NC4CCCC4)nc(Cl)nc32)[C@H](O)[C@@H]1O)C(=O)CP(=O)(O)O` [Example 109, (2-((((2R,3S,4R,5R)-5-(6-chloro-4-(cyclopentylamino)-1H-pyrazolo[3,4-d]pyrimidin-1-yl)-3,4-dihydroxytetrahydrofuran-2-yl)methyl)(methyl)amino)-2-oxoethyl)phosphonic acid] cannot be ordered by pIC50: ≥ 6.30 for the first, ≥ 6.30 for the second.

`CC(=O)N(c1nc(Cl)nc2c1cnn2[C@@H]1O[C@H](COCP(=O)(O)O)[C@@H](O)[C@H]1O)C1CCCC1` [Example 99, ((((2R,3S,4R,5R)-5-(6-Chloro-4-(N-cyclopentylacetamido)-1H-pyrazolo[3,4-d]pyrimidin-1-yl)-3,4-dihydroxytetrahydrofuran-2-yl)methoxy)methyl)phosphonic acid] and `C[C@H]1CCC[C@H]1Nc1nc(Cl)nc2c1cnn2[C@@H]1O[C@H](COCP(=O)(O)O)[C@@H](O)[C@H]1O` [Example 105, ((((2R,3S,4R,5R)-5-(6-chloro-4-(((1R,2S)-2-methylcyclopentyl)amino)-1H-pyrazolo[3,4-d]pyrimidin-1-yl)-3,4-dihydroxytetrahydrofuran-2-yl)methoxy)methyl)phosphonic acid] cannot be ordered by pIC50: ≥ 6.30 for the first, ≥ 6.30 for the second.

`Cc1ccc(-c2nc(Cl)nc3c2cnn3[C@@H]2O[C@H](COCP(=O)(O)O)[C@@H](O)[C@H]2O)o1` [Example 100, ((((2R,3S,4R,5R)-5-(6-chloro-4-(5-methylfuran-2-yl)-1H-pyrazolo[3,4-d]pyrimidin-1-yl)-3,4-dihydroxytetrahydrofuran-2-yl)methoxy)methyl)phosphonic acid] and `CC1(C)CCC[C@H]1Nc1nc(Cl)nc2c1cnn2[C@@H]1O[C@H](COCP(=O)(O)O)[C@@H](O)[C@H]1O` [Example 103, ((((2R,3S,4R,5R)-5-(6-chloro-4-(((R)-2,2-dimethylcyclopentyl)amino)-1H-pyrazolo[3,4-d]pyrimidin-1-yl)-3,4-dihydroxytetrahydrofuran-2-yl)methoxy)methyl)phosphonic acid] cannot be ordered by pIC50: ≥ 6.30 for the first, ≥ 6.30 for the second.

`O=P(O)(O)CCC[C@H]1O[C@@H](n2ncc3c(NC4CCCC4)nc(Cl)nc32)[C@H](O)[C@@H]1O` [Example 101, (3-((2R,3S,4R,5R)-5-(6-Chloro-4-(cyclopentylamino)-1H-pyrazolo[3,4-d]pyrimidin-1-yl)-3,4-dihydroxytetrahydrofuran-2-yl)propyl)phosphonic acid] and `O=P(O)(O)CS(=O)(=O)C[C@H]1O[C@@H](n2ncc3c(NC4CCC4)nc(Cl)nc32)[C@H](O)[C@@H]1O` [Example 107, (((((2S,3S,4R,5R)-5-(6-chloro-4-(cyclobutylamino)-1H-pyrazolo[3,4-d]pyrimidin-1-yl)-3,4-dihydroxytetrahydrofuran-2-yl)methyl)sulfonyl)methyl)phosphonic acid] cannot be ordered by pIC50: 6.00 to 6.30 for the first, ≥ 6.30 for the second.

`COP(=O)(CP(=O)(O)O)OC[C@H]1O[C@@H](n2nnc3c(NC4CCCC4)nc(Cl)nc32)[C@H](O)[C@@H]1O` (stereo partly drawn) [Example 106, (((((2R,3S,4R,5R)-5-(5-chloro-7-(cyclopentylamino)-3H-[1,2,3]triazolo[4,5-d]pyrimidin-3-yl)-3,4-dihydroxytetrahydrofuran-2-yl)methoxy)(methoxy)phosphoryl)methyl) phosphonic acid] and `O=P(O)(O)CS(=O)(=O)C[C@H]1O[C@@H](n2nnc3c(NC4CCCC4)nc(Cl)nc32)[C@H](O)[C@@H]1O` [Example 108, (((((2S,3S,4R,5R)-5-(5-chloro-7-(cyclopentylamino)-3H-[1,2,3]triazolo[4,5-d]pyrimidin-3-yl)-3,4-dihydroxytetrahydrofuran-2-yl)methyl)sulfonyl)methyl)phosphonic acid] cannot be ordered by pIC50: ≥ 6.30 for the first, ≥ 6.30 for the second.

`O=P(O)(O)CS(=O)(=O)C[C@H]1O[C@@H](n2nnc3c(NC4CCC4)nc(Cl)nc32)[C@H](O)[C@@H]1O` [Example 110, (((((2S,3S,4R,5R)-5-(5-chloro-7-(cyclobutylamino)-3H-[1,2,3]triazolo[4,5-d]pyrimidin-3-yl)-3,4-dihydroxytetrahydrofuran-2-yl)methyl)sulfonyl)methyl)phosphonic acid] and `O=P(O)(O)CS(=O)(=O)C[C@H]1O[C@@H](n2nnc3c(NCC4CCC4)nc(Cl)nc32)[C@H](O)[C@@H]1O` [Example 113, (((((2S,3S,4R,5R)-5-(5-chloro-7-((cyclobutylmethyl)amino)-3H-[1,2,3]triazolo[4,5-d]pyrimidin-3-yl)-3,4-dihydroxytetrahydrofuran-2-yl)methyl)sulfonyl)methyl)phosphonic acid] cannot be ordered by pIC50: ≥ 6.30 for the first, ≥ 6.30 for the second.

`O=P(O)(O)CS(=O)(=O)C[C@H]1O[C@@H](n2ncc3c(NCC4CCC4)nc(Cl)nc32)[C@H](O)[C@@H]1O` [Example 111, (((((2S,3S,4R,5R)-5-(6-chloro-4-((cyclobutylmethyl)amino)-1H-pyrazolo[3,4-d]pyrimidin-1-yl)-3,4-dihydroxytetrahydrofuran-2-yl)methyl)sulfonyl)methyl)phosphonic acid] and `O=P(O)(O)CS(=O)(=O)C[C@H]1O[C@@H](n2cnc3c(NC4CCCC4)nc(Cl)nc32)[C@H](O)[C@@H]1O` [Example 112, (((((2S,3S,4R,5R)-5-(2-chloro-6-(cyclopentylamino)-9H-purin-9-yl)-3,4-dihydroxytetrahydrofuran-2-yl)methyl)sulfonyl)methyl)phosphonic acid] cannot be ordered by pIC50: ≥ 6.30 for the first, ≥ 6.30 for the second.

`C[C@H](Nc1nc(Cl)nc2c1nnn2[C@@H]1O[C@H](CS(=O)(=O)CP(=O)(O)O)[C@@H](O)[C@H]1O)c1ccc(F)cc1` [Example 114] and `C[C@H](Nc1nc(Cl)nc2c1cnn2[C@@H]1O[C@H](CS(=O)(=O)CP(=O)(O)O)[C@@H](O)[C@H]1O)c1ccc(F)cc1` [Example 116, (((((2S,3S,4R,5R)-5-(6-chloro-4-(((S)-1-(4-fluorophenyl)ethyl)amino)-1H-pyrazolo[3,4-d]pyrimidin-1-yl)-3,4-dihydroxytetrahydrofuran-2-yl)methyl)sulfonyl)methyl)phosphonic acid] cannot be ordered by pIC50: ≥ 6.30 for the first, ≥ 6.30 for the second.

`CN(C[C@H]1O[C@@H](n2nnc3c(NC4CCCC4)nc(Cl)nc32)[C@H](O)[C@@H]1O)C(=O)CP(=O)(O)O` [Example 115, (2-((((2R,3S,4R,5R)-5-(5-chloro-7-(cyclopentylamino)-3H-[1,2,3]triazolo[4,5-d]pyrimidin-3-yl)-3,4-dihydroxytetrahydrofuran-2-yl)methyl)(methyl)amino)-2-oxoethyl)phosphonic acid] showed a pIC50 of 6.00 to 6.30.
